Measured values taken from patent publication US6706747B2, “Conformationally rigid bicyclic and adamantane derivatives useful as α2-adrenergic blocking agents” (Allergan, Inc., priority 1994, dated 2004).
Like-named read-outs stand apart in the source and are kept apart here.

How the values were obtained:
[1] = target: T1, human α2A (CHO-C10) receptor (Homo sapiens, UniProt P08913); assay: Radioligand binding, [3H]rauwolscine, CHO-C10 cell membranes; conditions: CHO-C10, 22° C., 30 minutes
T1 construct: expressed in transfected cells; host or cells: CHO (CHO-C10)
T1 sequence (P08913 1-465): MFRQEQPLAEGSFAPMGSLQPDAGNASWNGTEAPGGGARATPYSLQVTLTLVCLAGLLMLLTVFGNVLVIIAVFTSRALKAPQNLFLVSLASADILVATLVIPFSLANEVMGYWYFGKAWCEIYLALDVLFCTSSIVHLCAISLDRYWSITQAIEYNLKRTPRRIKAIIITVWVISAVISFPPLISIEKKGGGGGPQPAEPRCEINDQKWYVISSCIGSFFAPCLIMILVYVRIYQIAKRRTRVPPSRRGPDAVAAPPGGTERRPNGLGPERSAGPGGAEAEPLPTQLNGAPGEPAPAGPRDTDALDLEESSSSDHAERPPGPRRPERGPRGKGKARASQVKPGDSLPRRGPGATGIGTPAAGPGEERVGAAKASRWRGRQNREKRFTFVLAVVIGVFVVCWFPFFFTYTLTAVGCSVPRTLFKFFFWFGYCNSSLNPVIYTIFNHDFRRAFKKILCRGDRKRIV
Protocol: (§1) Cell preparation: HT-29 and chinese hamster ovary (CHO) cells expressing the human α2A (CHO—C10) receptor and CHO cells (CHO—RNG) expressing the rat α2B adrenoceptor were grown to near confluency in Dulbecco's modified Eagle's medium supplemented with 10% fetal bovine serum using standard cell culture methods. Cells were harvested by scraping and placed into cold buffer of the following composition: 50 mM Tris-HCl, 5 mM EDTA, pH 7.4). Cells were then homogenized with a Polytron homogenizer for 2×10 secs at setting # 7, arid centrifuged for 20 minutes at 49,000×g. The pellet fraction was washed (resuspended in Tris-HCl, pH 8 buffer and centrifuged for 15-20 minutes at 49,000×g) 2 times and stored at −100° C. until binding assay.
(§2) Binding studies: The radioligands [^3H]rauwolscine (specific activity 80 Ci/mmol) and [^3H]prazosin (specific activity 76 Ci/mmol) were obtained from New England Nuclear, Boston, Mass. Frozen membrane pellet was resuspended in 25 mM glycine/glycine, pH 7.4 and incubated with radioligand under the following conditions: CHO—C10, CHO—RNG, HT-29-[^3H]rauwolscine, 22° C., 30 minutes; RKC-[^3H]rauwolscine, 0° C., 120 minutes; and, HCC-[^3H]prazosin, 22° C., 30 minutes in a final volume of 500 μl. At the end of the incubation period, the samples were filtered through glass fiber filters (Whatman GF/B) in a 96 well cell harvester and rapidly washed four times with 4 ml of ice-cold 50 mM, Tris-HCl buffer. The filters were then oven dried and transferred to scintillation vials containing 5 ml of Beckman's Ready Protein® scintillation cocktail for counting. […] Protein concentrations were determined with a protein assay kit from Bio Rad. Binding isotherms, equilibrium dissociation and affinity constants were analyzed and determined by the non-linear least squares curve fitting programs AccuFit Competition/Saturation by Beckman.
(§3) Frozen membrane pellet was resuspended either 50 mM tris, 2 mM EGTA, 1 mM MgCl2, pH7.5 (RbKC, RbICB-[^3H]brimonidine); 50 mM tris, 0.5 mM EDTA, 5 mM NaCl, pH 7.7 (RbICB-[^3H]rauwolscine); 25 mM glycine/glycine, pH 7.4 (RtKC, CHO—C10, CH—RNG, HT-29, HCC) or 50 mM tris, 0.1 mM MnCl2, pH7.7 (RtCC). Membrane protein homogenate (75-200 μg) was incubated with radioligand under the following conditions: RbKC and RbICB-[^3H]rauwolscine, 22° C., 45 minutes; RtCC and RbICB-[^3H]brimondine, 22° C., 90 minutes; CHO—C10, CHO—RNG and HT-29-[^3H]rauwolscine, 22° C., 30 minutes; HCC—[^3H]prazosin, 22° C., 30 minutes; and, in a final volume of 250 or 500 μl. At the end of the incubation period, the samples were filtered through glass fiber filters (Whatman GF/B) in a 24 or 96 well cell harvester and rapidly washed four times with 4 mls of iced-cold 50 mM Tris-HCl buffer. The filters were then oven dried and transferred to scintillation vials containing 10 mls of, Beckman's Ready Protein® scintillation cocktail for counting. […] Protein concentrations were determined with a protein assay kit from Bio Rad. Binding isotherms, equilibrium dissociation and affinity constants were analyzed and determined by the non-linear least squares curve fitting programs EBDA (BioSoft) or AccuFit Competition/Saturation by Beckman.
(§4) Cell preparation: Chinese hamster ovary (CHO) cells expressing the human α2A (CHO—C10) and the rat α2B (CHO—RNG) adrenoceptors were grown to near confluency in Dulbecco's modified Eagle's medium supplemented with 10% fetal bovine serum using standard cell culture methods. Cells were harvested by scraping and placed into cold buffer of the following composition: 50 mM Tris-HCl, 5 mM EDTA, pH 7.4). Cells were then homogenized with a Polytron homogenizer for 2×10 secs at setting #7, and centrifuged for 20 minutes at 49,000×g.

[2] = target: α1; assay: Radioligand binding, [3H]prazosin, human cerebral cortex (HCC) membranes; conditions: 22° C., 30 minutes
Protocol: Tissue preparation: Membrane suspensions were prepared from human cerebral cortex (HCC) obtained from the UCI Organ and Tissue Bank and rat kidney cortex (RKC). Briefly, tissues (1 g) were homogenized in 25 ml of iced-cold 5 mM tris, pH 7.4 with a Polytron homogenizer for 30 secs at setting# 7, and centrifuged for. 10-12 minutes at 300×g at 4° C. The supernatant was filtered: through 2 layers of gauze and diluted 1:2 with 50 mM Tris-HCI buffer, pH 7.4, then centrifuged at 49,000×g for 20 minutes. The pellet fraction was washed 3 times (resuspended in Tris-HCl buffer and centrifuged for 20 minutes at 49,000×g). The pellet was then stored at −80° C. until the binding assay.
as §2, §3
The radioligands [^3H]rauwolscine (specific activity 80 Ci/mmol) and [^3H]prazosin (specific activity 76 Ci/mmol) were obtained from New England Nuclear, Boston, Mass. Frozen membrane pellet was resuspended in 25 mM glycine/glycine, pH 7.4 and incubated with radioligand under the following conditions: CHO—C10, CHO—RNG-[^3H]rauwolscine, 22° C., 30 minutes; and, HCC—[^3H]prazosin, 22° C., 30 minutes in a final volume of 500 ul.

[3] = target: T2, rat α2B adrenoceptor (CHO-RNG) (Rattus norvegicus, UniProt P19328); assay: Radioligand binding, [3H]rauwolscine, CHO-RNG cell membranes; conditions: 22° C., 30 minutes
T2 construct: expressed in transfected cells; host or cells: CHO (CHO-RNG)
T2 sequence (P19328 1-453): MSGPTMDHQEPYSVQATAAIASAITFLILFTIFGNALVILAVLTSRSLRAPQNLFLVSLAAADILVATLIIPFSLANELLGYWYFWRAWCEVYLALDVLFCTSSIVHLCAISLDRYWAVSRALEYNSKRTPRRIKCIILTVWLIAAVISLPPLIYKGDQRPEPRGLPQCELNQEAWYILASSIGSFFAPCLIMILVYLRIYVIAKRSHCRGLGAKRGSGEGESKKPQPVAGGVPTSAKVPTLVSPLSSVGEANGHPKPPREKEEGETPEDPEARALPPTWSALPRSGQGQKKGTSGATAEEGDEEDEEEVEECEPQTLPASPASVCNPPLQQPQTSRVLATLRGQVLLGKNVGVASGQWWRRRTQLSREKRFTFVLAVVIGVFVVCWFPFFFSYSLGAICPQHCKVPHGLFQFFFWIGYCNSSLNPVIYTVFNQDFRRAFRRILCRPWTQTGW
Protocol: as §1, §2, §3, §4

[4] = read-out: Ki (nM) α2A (CHO-C10)
[5] = read-out: Ki (nM) α2B (CHO-RNG)

Compound	Ki [1, 4] [nM]	Ki [2] [nM]	Ki [3, 5] [nM]	Ki ([1]; Ki (nM) α2A (CHO-C10)) [nM]	Ki ([3]; Ki (nM) α2B (CHO-RNG)) [nM]
c1ccc(C2C3CCC(C3)C2NC2=NCCO2)cc1 (centres unmarked) [drawing 7]	3.1	1860	7.8		
c1ccc(C2C3CCC(C3)C2NC2=NCCO2)cc1 (centres unmarked) [drawing 10]	1.9	73	27		
CC(C)C1C2CCC(C2)C1N (centres unmarked)	23300	> 100000	20900		
CC1(C)C2CCC1(C)C(NC1=NCCO1)C2 (centres unmarked)	368	> 10000	1930		
C1COC(NC23CC4CC(CC(C4)C2)C3)=N1 [drawing 27]	352	35000	1840		
c1ccc(CCNC2=NCCO2)cc1	1750	11100	4170		
CCC1C2CCC(C2)C1N (centres unmarked)	67200	> 100000	57100		
C1COC(NC2CC3CCC2CC3)=N1 (centres unmarked)	119	32500	770		
NC1C2CCC(C2)C1c1ccccc1 (centres unmarked)	6570	11000	6100		
c1ccc(C2C3CCC(C3)C2NC2=NCCN2)cc1 (centres unmarked)				14.3	72

Second part, led by results:

Ki [1, 4] [nM]	Ki [2] [nM]	Ki [3, 5] [nM]	Compound	Ki ([1]; Ki (nM) α2A (CHO-C10)) [nM]	Ki ([3]; Ki (nM) α2B (CHO-RNG)) [nM]
1.1	1860	4.6	c1cc2c(cc1C1C3CCC(C3)C1NC1=NCCO1)OCO2 (centres unmarked)		
102	> 10000	358	C1COC(NC23CC4CC(CC(C4)C2)C3)=N1 [drawing 26]		
9.8	8850	28.1	CCCC1C2CCC(C2)C1NC1=NCCO1 (centres unmarked) [drawing 18]		
25	8600	256	CCCC1C2CCC(C2)C1NC1=NCCO1 (centres unmarked) [drawing 17]		
0.6	1600	8.3	CCCC1CCCCC1NC1=NCCO1 (centres unmarked)		
59	24800	616	CCC1C2CCC(C2)C1NC1=NCCO1 (centres unmarked)		
4.2	> 10000	11.5	C1COC(NC2CC3CCC2C3)=N1 (centres unmarked)		
